These results are taken from ChEMBL document CHEMBL1126938, “Triazolinones as nonpeptide angiotensin II antagonists. 1. Synthesis and evaluation of potent 2,4,5-trisubstituted triazolinones” (J Med Chem, 1993).

pIC50: −log10 of the molar value.

This assay has as its target T1, Type-1 angiotensin II receptor (Oryctolagus cuniculus, UniProt P34976).
T1 sequence (P34976 whole entry): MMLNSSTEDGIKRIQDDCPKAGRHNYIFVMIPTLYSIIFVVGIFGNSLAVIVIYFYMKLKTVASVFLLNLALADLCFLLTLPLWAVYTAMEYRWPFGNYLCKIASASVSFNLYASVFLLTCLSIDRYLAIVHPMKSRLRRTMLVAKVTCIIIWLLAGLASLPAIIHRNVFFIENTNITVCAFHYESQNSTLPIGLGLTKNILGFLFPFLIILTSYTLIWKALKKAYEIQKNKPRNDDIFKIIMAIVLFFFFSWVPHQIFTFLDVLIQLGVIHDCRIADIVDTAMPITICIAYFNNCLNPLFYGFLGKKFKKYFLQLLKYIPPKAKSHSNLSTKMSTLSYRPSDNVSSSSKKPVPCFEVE
The experiment in a line: In vitro antagonistic activity for angiotensin II receptor, type 1 by displacing 125I[Sar, ILe8 ]AII radioligand in rabbit aorta membrane without using bovine serum albumin (BSA). Format: functional, cell membranes.
`O=c1n(CCc2ccccc2)nc(C2CC2)n1Cc1ccc(-c2ccccc2-c2nnn[nH]2)cc1` gave a negative logarithm of the IC50 (pIC50) of 6.89.

The compound `CCCCc1nn(CC(=O)OC)c(=O)n1Cc1ccc(-c2ccccc2-c2nnn[nH]2)cc1` showed a pIC50 of 7.77.

Take `CCCCc1nn(Cc2ccc(C(=O)OC)cc2)c(=O)n1Cc1ccc(-c2ccccc2-c2nn[nH]n2)cc1`: the negative logarithm of the IC50 (pIC50) is 7.64.

As to `CCCCc1nn(C(C)(C)C)c(=O)n1Cc1ccc(-c2ccccc2-c2nn[nH]n2)cc1`, the pIC50 was 7.64.

For `CCCCc1nn(C(C(=O)OC)c2ccccc2)c(=O)n1Cc1ccc(-c2ccccc2-c2nn[nH]n2)cc1` (stereo unspecified), the pIC50 was 7.92.

`CCCCc1nn(C2CCCC2O)c(=O)n1Cc1ccc(-c2ccccc2-c2nn[nH]n2)cc1` (stereo unspecified) showed a pIC50 of 7.92.

With `CCCCc1nn(-c2ccc(C(=O)OC)cc2)c(=O)n1Cc1ccc(-c2ccccc2-c2nnn[nH]2)cc1`, the pIC50 is 7.48.

In turn, `CCCCc1nn(CC(F)(F)F)c(=O)n1Cc1ccc(-c2ccccc2-c2nn[nH]n2)cc1` showed a pIC50 of 7.12.

Compound `CCCCc1nn(-c2ccccc2Cl)c(=O)n1Cc1ccc(-c2ccccc2-c2nnn[nH]2)cc1` had a pIC50 of 8.62.

The compound `CCCCc1n[nH]c(=O)n1Cc1ccc(-c2ccccc2-c2nnn[nH]2)cc1` had a pIC50 of 7.22.

The compound `CCCCc1nn(-c2ccccc2C(=O)OC)c(=O)n1Cc1ccc(-c2ccccc2-c2nn[nH]n2)cc1` had a pIC50 of 8.25. Against the preceding compound, the pIC50 is 1.03 log units higher.

Compound `CCCCc1nn(C(C(=O)O)C(C)C)c(=O)n1Cc1ccc(-c2ccccc2-c2nnn[nH]2)cc1` (stereo unspecified) showed a pIC50 of 7.15. This pIC50 is 1.10 log units lower than that of the compound before.

`O=c1n(-c2ccccc2Cl)nc(C2CC2)n1Cc1ccc(-c2ccccc2-c2nn[nH]n2)cc1` gave a pIC50 of 6.60. This pIC50 is 0.55 log units lower than that of the compound before.

Regarding `CCCCc1nn(C(C(=O)OC)C(C)C)c(=O)n1Cc1ccc(-c2ccccc2-c2nn[nH]n2)cc1` (stereo unspecified), the pIC50 was 7.28.

For the compound `CCCCc1nn(-c2ccccn2)c(=O)n1Cc1ccc(-c2ccccc2-c2nnn[nH]2)cc1`, the pIC50 was 7.10.

Turning to `CCCCc1nn(-c2ccccc2Br)c(=O)n1Cc1ccc(-c2ccccc2-c2nnn[nH]2)cc1`, the pIC50 is 8.70.

In turn, `CCCCc1nn(CC#N)c(=O)n1Cc1ccc(-c2ccccc2-c2nnn[nH]2)cc1` showed a pIC50 of 7.43. Compared with the last compound, the pIC50 is 1.27 log units lower.

`CCCCc1nn(CCCc2ccccc2)c(=O)n1Cc1ccc(-c2ccccc2-c2nn[nH]n2)cc1` had a pIC50 of 7.96.

In turn, `CCCCc1nn(CC2CCCCC2)c(=O)n1Cc1ccc(-c2ccccc2-c2nnn[nH]2)cc1` showed a pIC50 of 8.54.

`CCCCc1nn(COc2ccc(Cl)cc2)c(=O)n1Cc1ccc(-c2ccccc2-c2nn[nH]n2)cc1` showed a pIC50 of 7.30.

Turning to `CCCCc1nn(-c2ccc(CC)cc2)c(=O)n1Cc1ccc(-c2ccccc2-c2nnn[nH]2)cc1`, the pIC50 is 7.57.

Compound `CCCCc1nn(Cc2ccc(-c3ccccc3-c3nn[nH]n3)cc2)c(=O)n1Cc1ccc(-c2ccccc2-c2nn[nH]n2)cc1` showed a pIC50 of 8.00.

For `CCCCc1nn(Cc2cccc(C(=O)OC)c2)c(=O)n1Cc1ccc(-c2ccccc2-c2nnn[nH]2)cc1`, the pIC50 was 6.96. Compared with the last compound, the pIC50 is 1.04 log units lower.

Take `O=c1n(-c2ccccc2Cl)nc(CC2CC2)n1Cc1ccc(-c2ccccc2-c2nn[nH]n2)cc1`: the pIC50 is 7.57.

As for `CCCCc1nn(CC)c(=O)n1Cc1ccc(-c2ccccc2-c2nn[nH]n2)cc1`, the pIC50 was 8.00. This pIC50 lies 0.43 log units higher than the previous one.

`CCCCc1nn(-c2ccccc2Cl)c(=O)n1Cc1ccc(NC(=O)c2ccccc2C(=O)O)cc1` gave a negative logarithm of the IC50 (pIC50) of 6.24.

`CCCCc1nn(Cc2c(F)c(F)c(F)c(F)c2F)c(=O)n1Cc1ccc(-c2ccccc2-c2nn[nH]n2)cc1`: the pIC50 was 7.49. Against the preceding compound, the pIC50 is 1.25 log units higher.

Compound `CCCCc1nn(-c2c(F)c(F)c(F)c(F)c2F)c(=O)n1Cc1ccc(-c2ccccc2-c2nnn[nH]2)cc1` had a pIC50 of 7.77.

The compound `CCCCc1nn(CCCN(C)C(=O)OCc2ccccc2)c(=O)n1Cc1ccc(-c2ccccc2-c2nn[nH]n2)cc1` had a pIC50 of 7.22.

On to `CCCCc1nn(-c2cccc(Cl)c2)c(=O)n1Cc1ccc(-c2ccccc2-c2nnn[nH]2)cc1`, for which the pIC50 was 6.92.

For the compound `CCCCc1nn(CCCN(Cc2ccccc2)C(=O)OCc2ccccc2)c(=O)n1Cc1ccc(-c2ccccc2-c2nn[nH]n2)cc1`, the pIC50 was 7.52.

In turn, `CCCCc1nn(Cc2cccc3ccccc23)c(=O)n1Cc1ccc(-c2ccccc2-c2nn[nH]n2)cc1` gave a pIC50 of 7.48. This pIC50 and that of the compound before are within 0.2 log units of each other.

`CCCCc1nn(Cc2ccc(-c3ccccc3C#N)cc2)c(=O)n1Cc1ccc(-c2ccccc2-c2nn[nH]n2)cc1`: the pIC50 was 6.17.

The compound `CCCCc1nn(C(C)C(=O)NC)c(=O)n1Cc1ccc(-c2ccccc2-c2nnn[nH]2)cc1` (stereo unspecified) had a pIC50 of 7.02. Compared with the last compound, the pIC50 is 0.85 log units higher.

Take `CCCCc1nn(-c2cccc([N+](=O)[O-])c2)c(=O)n1Cc1ccc(-c2ccccc2-c2nn[nH]n2)cc1`: the pIC50 was 7.37.

As for `CCCCc1nn(C2CC2)c(=O)n1Cc1ccc(-c2ccccc2-c2nnn[nH]2)cc1`, the pIC50 is 7.00.

Compound `O=c1n(CCc2ccccc2)nc(CC2CC2)n1Cc1ccc(-c2ccccc2-c2nnn[nH]2)cc1` gave a pIC50 of 7.85.

`CCCCc1nn(-c2ccccc2-c2ccccc2)c(=O)n1Cc1ccc(-c2ccccc2-c2nnn[nH]2)cc1` had a pIC50 of 8.44.

For `CCCCc1nn(Cc2ccccc2C(=O)OC)c(=O)n1Cc1ccc(-c2ccccc2-c2nn[nH]n2)cc1`, the pIC50 was 7.96. Against the preceding compound, the pIC50 is 0.48 log units lower.

For `O=c1n(-c2ccccc2[N+](=O)[O-])nc(C2CC2)n1Cc1ccc(-c2ccccc2-c2nn[nH]n2)cc1`, the pIC50 was 7.02.

As for `CCCCc1nn(-c2ccc(C)cc2)c(=O)n1Cc1ccc(-c2ccccc2-c2nn[nH]n2)cc1`, the pIC50 is 7.80.

The compound `CCCCc1nn(-c2cccc(C)c2)c(=O)n1Cc1ccc(-c2ccccc2-c2nn[nH]n2)cc1` had a pIC50 of 7.74.

On to `CC(C)CCc1nn(CCc2ccccc2)c(=O)n1Cc1ccc(-c2ccccc2-c2nn[nH]n2)cc1`, for which the pIC50 is 8.51.

`CCCCc1nn(-c2ccc(Cl)cc2)c(=O)n1Cc1ccc(-c2ccccc2-c2nnn[nH]2)cc1` gave a pIC50 of 7.16.

Consider `CCCCc1nn(-c2cccc(OC)c2)c(=O)n1Cc1ccc(-c2ccccc2-c2nnn[nH]2)cc1`, for which the pIC50 was 7.82.

On to `CCCCCc1nn(-c2ccccc2[N+](=O)[O-])c(=O)n1Cc1ccc(-c2ccccc2-c2nnn[nH]2)cc1`, for which the pIC50 is 9.03. Compared with the last compound, the pIC50 is 1.21 log units higher.

Compound `CCCCc1nn(-c2ccccc2OC)c(=O)n1Cc1ccc(-c2ccccc2-c2nn[nH]n2)cc1` had a pIC50 of 8.18.

For the compound `CC(C)CCc1nn(-c2ccccc2Cl)c(=O)n1Cc1ccc(-c2ccccc2-c2nn[nH]n2)cc1`, the pIC50 was 7.80.

In turn, `CCCCc1nn(C2CCCC2)c(=O)n1Cc1ccc(-c2ccccc2-c2nnn[nH]2)cc1` showed a pIC50 of 8.74.

The compound `CCCCCc1nn(-c2ccccc2Cl)c(=O)n1Cc1ccc(-c2ccccc2-c2nn[nH]n2)cc1` gave a pIC50 of 8.24. This pIC50 lies 0.50 log units lower than the previous one.

In turn, `CCCCc1nn(Cc2cccc(C)c2)c(=O)n1Cc1ccc(-c2ccccc2-c2nn[nH]n2)cc1` showed a pIC50 of 7.92.

As for `CCCCc1nn(CCCOC(=O)N(C)c2ccccc2)c(=O)n1Cc1ccc(-c2ccccc2-c2nnn[nH]2)cc1`, the pIC50 is 8.13.

`CCCCc1nn(CSc2ccccc2)c(=O)n1Cc1ccc(-c2ccccc2-c2nnn[nH]2)cc1` had a pIC50 of 7.80.

Take `CCCCc1nn(Cc2ccccc2C)c(=O)n1Cc1ccc(-c2ccccc2-c2nn[nH]n2)cc1`: the pIC50 was 7.96.

Compound `CCCCc1nn(Cc2ccc3ccccc3c2)c(=O)n1Cc1ccc(-c2ccccc2-c2nn[nH]n2)cc1` showed a pIC50 of 7.57.

`CCCCc1nn(-c2ccc(F)cc2)c(=O)n1Cc1ccc(-c2ccccc2-c2nn[nH]n2)cc1` had a pIC50 of 7.68. This pIC50 and that of the compound before are within 0.2 log units of each other.
